This is an account of results in patent US20230391821A1, “METHODS FOR TARGET RELEASE FROM INTEIN COMPLEXES” (MERCK PATENT GMBH, priority 2020, published 2023).

Structures are written as SMILES.

Assay [1] concerns intein complex of 13 kDa intein-C tagged target (Thioredoxin) and intein-N ligand R44-358132. Description: Example 2-1: intein cleavage / tagless target release on intein-N column, Cleavage Buffer pH 7 with additives. The class given is biochemical, Escherichia coli (strain K12). As to conditions: 13 kDa target, versus Cleavage B.1.
The test system of assay [2] is intein complex of 13 kDa intein-C tagged target and intein-N ligand R44-358132. Description: Example 3: intein cleavage under capture conditions (pH 9), no pH shift. The class given is biochemical. The settings on record: 13 kDa target, versus Capture A.1. The protocol:
A 13 kDa intein-C tagged target was pre-purified using Strep-II Tag purification as described in example 1 and was diluted to a concentration of 1 mg/mL. The intein-N resin prototype column was equilibrated with 10 CV Capture Buffer (100 mM Tris, 200 mM NaCl, pH 9). The pre-purified intein-C target was loaded with 5 CV to the prototype column under capture conditions (100 mM Tris, 200 mM NaCl, pH 9). The impurities were washed out with 10 CV Capture Buffer (100 mM Tris, 200 mM NaCl, pH 9). The Capture Buffer designated A.1 (100 mM Tris, 200 mM NaCl, pH 9) was used as a reference in this setup. […]
The two different Capture Buffers A.1 and A.2 were used in two consecutive purification cycles. The A280-Absorbance chromatograms were recorded and analyzed to determine the amount of protein recovered from the elution and the CIP phase.
The amount of eluted target recovered from the elution step 1 and elution step 2 were determined using the A280-Absorbance and the molecular extinction coefficient of the cleaved target. The total bound amount of intein-C tagged protein was calculated using the eluted target, and the remaining intein-C target, that was released during the cleaning phase together with the remained intein-C fragments. The yield of tagless released target during the elution phase was calculated per total bound intein-C target. […]

In assay [3] the test system is intein complex of 13 kDa intein-C tagged target and intein-N ligand R46-358132. Description: Example 4: intein cleavage with 10 min residence time during elution, with and without pH shift. The format is biochemical. The protocol: The intein-N resin prototype column, carrying a third generation of intein-N ligand (R46-358132) was used for five intein purifications. The improvement of intein cleavage through additives such as imidazole (Examples 2, 3) was studied under longer residence times, with and without introducing a pH shift during the elution phase.
One reference run (cycle 1) was accomplished as a reference run for that study, using 5 minutes residence time during the whole purification process (0.2 ml/min flow rate). Further, the intein-N resin prototype column was used in additional four consecutive cycles (cycles 2-5) where a combinatorial method flow rate was given. […]
Depending on the used buffer system during the elution phase, the amount of eluted tagless 13 kDa target was about 0.40-0.91 mg. […] The total intein-C bound protein was calculated using the eluted target and the remaining intein-C target, that was released during the cleaning phase together with the remained intein-C fragments. The amount of eluted target during elution step 1 and step 2 was calculated for all five cycles using the A280-Absorbance and the molecular extinction coefficient of the cleaved target.
The yield of tagless released target during the elution phase was calculated per total bound amount of intein-C target. […]

The subject of assay [4] is intein complex of intein-C tagged hEPO (19 kDa) and intein-N ligand R46-358132. Description: Example 6: intein cleavage at pH 7, highly glycosylated target hEPO. The class given is biochemical, human. As to conditions: versus Cleavage B.1.
Assay [5] deals with intein complex of intein-C tagged S1-RBD (26 kDa) and intein-N ligand R49-358132. Description: Example 6: intein cleavage at pH 7, highly glycosylated target S1-RBD. The format is biochemical, SARS-CoV-2. The settings on record: versus Cleavage B.1.

With `c1c[nH]cn1` [imidazole], the “% improvement in yield (E1)” value in assay [1] is “up to 11.15%”; in assay [2], 15.15%; in assay [3] (cycle 3 (B.2) versus cycle 1 (B.1, 0.2 ml/min), cycle 5 (A.2) versus cycle 4 (A.1)), 12.51%. Also, in assay [3] (13 kDa target, elution 1 and 2, FIG. 9), the “elution amount in A280 chromatogram compared with buffer without additive” value was “higher elution amount”. For the same compound, the “% improvement in yield (total)” value in assay [4] worked out at 12.22%; in assay [5] it was 1.95%.
